What all share (assay): steady-state kinetics, coupled assay with GAP dehydrogenase (NAD+)
One series addresses T1, ZmTrpA^L6BX1 + ZmTrpB (Zea mays, UniProt B2Y0K4, T232V/V233N/T238P/S243N/G244P/K245R, form not given).
T1 construct: gene TSA; ZmTrpA with loop 6 of ZmBX1, in complex with ZmTrpB in excess; with Tryptophan synthase beta chain, chloroplastic
The format is biochemical. Conditions: retro-aldol cleavage, 100 mM EPPS/KOH pH 7.5, 180 mM KCl, 40 μM PLP, 6 mM NAD+, 20 mM Na3AsO4, 100 mM L-serine, 30 °C, variant ZmTrpA^SPM4-L6BX1. An excerpt: steady-state kinetics, coupled assay with GAP dehydrogenase (NAD+) on ZmTrpA^L6BX1 + ZmTrpB

A further series addresses T2, ZmTrpA + ZmTrpB (Zea mays, UniProt B2Y0K4).
T2 construct: gene TSA; alpha-beta-beta-alpha tryptophan synthase complex, TrpB in excess; construct details only in supplement; with Tryptophan synthase beta chain, chloroplastic
The format is biochemical. Conditions: retro-aldol cleavage, 100 mM EPPS/KOH pH 7.5, 180 mM KCl, 40 μM PLP, 6 mM NAD+, 20 mM Na3AsO4, 100 mM L-serine, 30 °C. The text has this:
steady-state kinetics, coupled assay with GAP dehydrogenase (NAD+) on ZmTrpA + ZmTrpB

Series [1] has as its target T3, ZmTrpA^L6BX1 (ZmTrpA_L6zmBX1) (Zea mays, UniProt B2Y0K4, T232V/V233N/T238P/S243N/G244P/K245R).
T3 construct: gene TSA; ZmTrpA with loop 6 replaced by that of ZmBX1; without TrpB
In kind it is biochemical. Conditions: retro-aldol cleavage; 100 mM EPPS/KOH pH 7.5, 180 mM KCl, 40 μM PLP, 6 mM NAD+, 20 mM Na3AsO4, 30 °C; no TrpB; cited from earlier work. The text has this:
steady-state kinetics, coupled assay with GAP dehydrogenase (NAD+) on ZmTrpA^L6BX1 (ZmTrpA_L6zmBX1)

Substrate in series [2]: O=P(O)(O)OC[C@@H](O)[C@@H](O)c1c[nH]c2ccccc12
In kind it is biochemical, Zea mays. Conditions: retro-aldol cleavage, 100 mM EPPS/KOH pH 7.5, 180 mM KCl, 40 μM PLP, 6 mM NAD+, 20 mM Na3AsO4, 30 °C, no TrpB. The text has this:
steady-state kinetics, coupled assay with GAP dehydrogenase (NAD+) on ZmBX1

As a reminder, the Km is the concentration of substrate that gives half-maximal velocity. As a reminder, the kcat is the number of substrate molecules converted per active site and unit of time at saturation. What is called kcat/Km is the turnover number divided by the Michaelis constant.

T2 sequence (B2Y0K4 entry or part of it): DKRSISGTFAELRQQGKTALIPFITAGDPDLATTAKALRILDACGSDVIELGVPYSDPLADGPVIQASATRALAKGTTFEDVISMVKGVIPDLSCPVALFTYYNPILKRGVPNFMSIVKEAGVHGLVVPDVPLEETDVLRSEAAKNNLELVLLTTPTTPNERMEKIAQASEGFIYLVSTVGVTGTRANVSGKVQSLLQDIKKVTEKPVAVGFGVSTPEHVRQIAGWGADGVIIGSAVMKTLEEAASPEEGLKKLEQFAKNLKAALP
T2 sequence (P43284 46-443, further chain): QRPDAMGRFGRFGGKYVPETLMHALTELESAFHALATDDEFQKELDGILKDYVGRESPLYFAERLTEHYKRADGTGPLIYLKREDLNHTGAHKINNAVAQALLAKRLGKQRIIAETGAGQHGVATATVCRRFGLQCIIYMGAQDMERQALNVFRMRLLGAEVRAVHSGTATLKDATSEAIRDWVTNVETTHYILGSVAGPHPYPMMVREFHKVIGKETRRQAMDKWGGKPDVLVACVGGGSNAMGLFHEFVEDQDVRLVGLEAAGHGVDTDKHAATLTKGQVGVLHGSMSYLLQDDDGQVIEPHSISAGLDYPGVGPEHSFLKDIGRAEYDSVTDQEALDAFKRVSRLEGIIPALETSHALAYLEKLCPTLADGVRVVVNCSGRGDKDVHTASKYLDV
T1 sequence (P43284 46-443, stated change not applied, form open): as the sequence (P43284 46-443, further chain) above
T1 sequence (B2Y0K4 entry or part of it T232V/V233N/T238P/S243N/G244P/K245R, form open): as the sequence (B2Y0K4 entry or part of it) above, with T179V, V180N, T185P, S190N, G191P, K192R counted along it
T3 sequence (B2Y0K4 entry or part of it T232V/V233N/T238P/S243N/G244P/K245R): as the sequence (B2Y0K4 entry or part of it) above, with T179V, V180N, T185P, S190N, G191P, K192R counted along it

As for `O=P(O)(O)OC[C@@H](O)[C@@H](O)c1c[nH]c2ccccc12` [indole-glycerol phosphate], the Km on ZmTrpA^L6BX1 + ZmTrpB is 70 ± 12 µM; at ZmTrpA + ZmTrpB (variant ZmTrpA^SPM4), 134 ± 9 µM; on ZmTrpA + ZmTrpB (variant ZmTrpA^SPM6), 103 ± 13.1 µM; in series [1], 3350 ± 340 µM.

B1: ZmBX1 (Zea mays) (protein)
chain: SRPVSDTMAALMAKGKTAFIPYITAGDPDLATTAEALRLLDGCGADVIELGVPCSDPYIDGPIIQASVARALASGTTMDAVLEMLREVTPELSCPVVLLSYYKPIMSRSLAEMKEAGVHGLIVPDLPYVAAHSLWSEAKNNNLELVLLTTPAIPEDRMKEITKASEGFVYLVSVNGVTGPRANVNPRVESLIQEVKKVTNKPVAVGFGISKPEHVKQIAQWGADGVIIGSAMVRQLGEAASPKQGLRRLEEYARGMKNALP
notes: standalone enzyme; construct details only in supplement
Take B1: in series [2], the Km was 11 ± 1.3 µM, the kcat came out at 5.2 ± 0.13 s⁻¹ and the kcat/Km worked out at 474000 ± 56100 M⁻¹ s⁻¹.

Values taken from publication PMC11574760, “Altering Active-Site Loop Dynamics Enhances Standalone Activity of the Tryptophan Synthase Alpha Subunit” (ACS Catalysis, 2024).
